pEC50, pIC50: −log10 of the molar value. Like-named read-outs stand apart in the source and are kept apart here.
Assays:
[1] = target: recombinant SARS-CoV-2 Main protease (Mpro) (Severe acute respiratory syndrome coronavirus 2 (2019-nCoV) (SARS-CoV-2), UniProt P0DTD1); assay: Cov Mpro Biochemical IC50 Assay
[2] = test system: SARS-CoV-2-NLuc; assay: microbe, parasite or virus in culture; type: cell-based, SARS Coronavirus 2
[3] = recombinant SARS-CoV-2 Mpro 7.5 nM, fluorogenic peptide substrate 40 μM, read-out: MPro IC50
[4] = Severe acute respiratory syndrome coronavirus, 48 h; read-out: MPro EC50
[5] = recombinant SARS-CoV-2 Mpro, fluorogenic peptide substrate, read-out: MPro IC50
[6] = Severe acute respiratory syndrome coronavirus, 48 h, read-out: MPro EC50

Structure (SMILES)	pIC50 [1, 3]	pIC50 [1, 5]	pEC50 [2, 6]	also measured
Cn1nncc1-c1cccc(Cl)c1-c1ccc2c(=O)n(-c3cncc4ccccc34)c(=O)[nH]c2c1 [Example 567, 7-[2-chloro-6-(3-methyltriazol-4-yl)phenyl]-3-(4-isoquinolyl)-1H-quinazoline-2,4-dione]	7.29			pEC50 ([2]; read-out: MPro EC50): 6.64
Cn1ncc2cncc(-n3c(=O)c4sc(-c5cc(C(F)(F)F)ccc5C#N)cc4n(CCC#N)c3=O)c21 [Example 822]	7.02			pEC50 [2, 4]: 6.46
Cc1c(-c2ccccc2Cl)sc2c(=O)n(-c3cncc4ccccc34)c(=O)[nH]c12 [Example 76]		5.56	5.13	
COC(=O)Cn1c(=O)n(-c2cncc3ccccc23)c(=O)c2sc(-c3ccccc3Cl)cc21 [Example 220]		7.54	7.06	
O=c1[nH]c2cc(-c3ccccc3F)sc2c(=O)n1-c1cncc2ccccc12 [Example 9]		6.80	6.53	
CCn1ncc2cncc(-n3c(=O)[nH]c4cc(-c5cc(OC)c(F)cc5Cl)sc4c3=O)c21 [Example 732]	7.82		7.80	
NC(=O)c1cc(-c2cccc(Cl)c2-c2ccc3c(=O)n(-c4cncc5ccccc45)c(=O)[nH]c3c2)ccc1Cl [Example 264]		7.95	7.52	
COc1cc(-c2cc3[nH]c(=O)n(-c4nncc5ccccc45)c(=O)c3s2)c(Cl)cc1F [Example 744]	7.66			pEC50 [2, 4]: 7.07
COc1cc(-c2cc3[nH]c(=O)n(-c4cncc(Cl)c4)c(=O)c3s2)c(Cl)cc1F [Example 715]	8.33			pEC50 [2, 4]: 8.00
COc1cc(-c2ccc3c(=O)n(-c4cncc5ccccc45)c(=O)[nH]c3c2)c(C#N)cc1F [Example 319]		7.97	7.55	
Cc1nc2cc(-c3cccc(Cl)c3-c3ccc4c(=O)n(-c5cncc6ccccc56)c(=O)[nH]c4c3)ccc2o1 [Example 359]		6.97	7.04	
CC(C)Oc1ccc(Cl)c(-c2ccc3c(=O)n(-c4cncc5ccccc45)c(=O)[nH]c3c2)c1 [Example 297]		6.17	6.65	
COc1cc(F)ccc1-c1cc2[nH]c(=O)n(-c3cncc4ccccc34)c(=O)c2s1 [Example 178]		6.66	6.71	
COc1cnc(C#N)c(-c2cc3[nH]c(=O)n(-c4cncc5cccc(F)c45)c(=O)c3s2)c1 [Example 761]	7.34			pEC50 [2, 4]: 6.40
COC(=O)[C@H]1C[C@@H]1c1cncc(-n2c(=O)[nH]c3cc(-c4ccccc4Cl)ccc3c2=O)c1C [Example 126]		< 4.30	< 4.30	
NC(=O)c1cc(-c2cccc(Cl)c2-c2ccc3c(=O)n(-c4cncc5ccccc45)c(=O)[nH]c3c2)ccc1F [Example 260]		7.82	7.99	
COc1cc(-c2cc3[nH]c(=O)n(-c4cncc(C5CC5)c4)c(=O)c3s2)c(Cl)cc1F [Example 753]				pIC50 ([1]; MPro IC50, recombinant SARS-CoV-2 Mpro 7.5 nM, fluorogenic peptide substrate 40 μM): 8.16; pEC50 [2, 4]: 7.84
COc1ccc(Cl)c(-c2cc3[nH]c(=O)n(-c4cncc5ccc(N6CCn7cc(C(F)(F)F)nc7C6)cc45)c(=O)c3s2)c1 [Example 610]	> 8.60		7.86	
COc1cc(-c2cc3[nH]c(=O)n(-c4cncc5cnn(CC(F)(F)F)c45)c(=O)c3s2)c(Cl)cc1F [Example 507]	7.73		7.41	
COc1ccc2cncc(-n3c(=O)[nH]c4cc(-c5ccccc5Cl)sc4c3=O)c2n1 [Example 449, 6-(2-chlorophenyl)-3-(2-methoxy-1,6-naphthyridin-8-yl)thieno[3,2-d]pyrimidine-2,4(1H,3H)-dione]	7.86		7.53	
COc1ccc(Cl)c(-c2cc3[nH]c(=O)n(-c4cncc5ccccc45)c(=O)c3s2)c1 (single isomer, unassigned) [Example 466, 6-(2-chloro-5-methoxyphenyl)-3-(isoquinolin-4-yl)thieno[3,2-d]pyrimidine-2,4(1H,3H)-dione]	6.81			pEC50 ([2]; read-out: MPro EC50): 6.82
Cc1cc(-c2cc3[nH]c(=O)n(-c4cncc5ccccc45)c(=O)c3s2)c(Cl)cc1F [Example 350]		7.76	7.31	
COCCOc1ccc(Cl)c(-c2ccc3c(=O)n(-c4cncc5ccccc45)c(=O)[nH]c3c2)c1 [Example 251]		7.17	6.82	
COc1ccc(Cl)c(-c2cc3c(s2)c(=O)n(-c2cncc4ccccc24)c(=O)n3CC#N)c1 (atropisomer, axis not shown) [Example 702]	> 8.53		8.62	
Cc1cc(-c2cc3c(s2)c(=O)n(-c2cncc4ccccc24)c(=O)n3CCC#N)c(C#N)cc1F [Example 823]	7.79		7.59	

Structure (SMILES)	pIC50 [1, 3]	pIC50 [1, 5]	pEC50 [2, 6]	also measured
COc1cc(-c2cc3c(s2)c(=O)n(-c2cncc4cccnc24)c(=O)n3C)c(Cl)cc1F [Example 994]	8.07		8.08	
N#CCCn1c(=O)n(-c2cncc3cccc(F)c23)c(=O)c2sc(-c3ccccc3Cl)cc21 [Example 1084]	8.12		7.93	
COc1cc(-c2cc3c(s2)c(=O)n(-c2cncc4cnn(C)c24)c(=O)n3C)c(Cl)cc1F [Example 898, 6-(2-chloro-4-fluoro-5-methoxyphenyl)-1-methyl-3-(1-methyl-1H-pyrazolo[4,3-c]pyridin-7-yl)thieno[3,2-d]pyrimidine-2,4(1H,3H)-dione]	7.89		7.92	
O=c1[nH]c2cc(-c3csc4ccccc34)ccc2c(=O)n1-c1cncc2ccccc12 [Example 50]		5.10	5.04	
O=c1[nH]c2cc(-c3ccccc3OCc3ccccc3)sc2c(=O)n1-c1cncc2ccccc12 [Example 18]		5.53	6.68	
Cc1c(Cl)cncc1-n1c(=O)[nH]c2cc(-c3ccccc3Cl)ccc2c1=O [Example 140, 3-(5-chloro-4-methylpyridin-3-yl)-7-(2-chlorophenyl)quinazoline-2,4(1H,3H)-dione]		< 4.00	6.37	
COc1cc(-c2cc3c(s2)c(=O)n(-c2cncc4cccc(F)c24)c(=O)n3CCC#N)c(C#N)cc1F [Example 943]	7.99		8.00	
COc1cc(-c2cc3c(s2)c(=O)n(-c2cncc4cccc(Cl)c24)c(=O)n3CCC#N)c(Cl)cc1F [Example 921]	8.85		8.72	
O=c1[nH]c2cc(-c3ccccc3OCc3ccccc3Cl)ccc2c(=O)n1-c1cncc2ccccc12 [Example 55]		4.89	5.74	
COc1cc(-c2cc3c(s2)c(=O)n(-c2cnc(F)c(C)c2)c(=O)n3CCC#N)c(C#N)cc1F [Example 780]	7.76		7.27	
COc1cc(-c2cc3[nH]c(=O)n(-c4cncc5nccn45)c(=O)c3s2)c(Cl)cc1F [Example 978]	7.48			pEC50 [2, 4]: 6.43
COc1cc(-c2cc3c(s2)c(=O)n(-c2cncc4cnn(C)c24)c(=O)n3CC#N)c(Cl)cc1F (single isomer, unassigned) [Example 1012, 2-[6-(2-chloro-4-fluoro-5-methoxy-phenyl)-3-(1-methylpyrazolo[4,3-c]pyridin-7-yl)-2,4-dioxo-thieno[3,2-d]pyrimidin-1-yl]acetonitrile]	8.70			pEC50 ([2]; read-out: MPro EC50): 8.50
COc1ccc(Cl)c(-c2cc3[nH]c(=O)n(-c4cncc5cc(OC)ccc45)c(=O)c3s2)c1 [Example 624, 6-(2-chloro-5-methoxyphenyl)-3-(7-methoxyisoquinolin-4-yl)thieno[3,2-d]pyrimidine-2,4(1H,3H)-dione]	7.05			pEC50 [2, 4]: 6.41
CC(=O)N1CC2(C1)CN(c1ccc3cncc(-n4c(=O)[nH]c5cc(-c6ccccc6Cl)sc5c4=O)c3c1)C2 [Example 422]	8.11			pEC50 [2, 4]: 6.87
O=c1[nH]c2cc(-c3c(Cl)cccc3-c3cnc4n3CCC4)sc2c(=O)n1-c1cncc2ccccc12 [Example 529]	8.07		7.47	
COc1cc(-c2cc3c(s2)c(=O)n(-c2cncc4nnn(C)c24)c(=O)n3CCC#N)c(C#N)cc1F [Example 878]	7.80		7.05	
Cn1ncc2cncc(-n3c(=O)[nH]c4cc(-c5c(F)ccc6[nH]ncc56)sc4c3=O)c21 [Example 1014, 6-(5-fluoro-1H-indazol-4-yl)-3-(1-methylpyrazolo[4,3-c]pyridin-7-yl)-1H-thieno[3,2-d]pyrimidine-2,4-dione]	< 6.00			pEC50 [2, 4]: < 6.00
COc1ccc(C#N)c(-c2cc3[nH]c(=O)n(-c4cncc5c4OCCC5)c(=O)c3s2)c1 [Example 587]	7.55		6.93	
N#Cc1ccccc1-c1ccc2c(=O)n(-c3cncc4ccccc34)c(=O)[nH]c2c1 [Example 65, 2-(3-(isoquinolin-4-yl)-2,4-dioxo-1,2,3,4-tetrahydroquinazolin-7-yl)benzonitrile]		6.96	6.54	
COc1cc(-c2cc3c(s2)c(=O)n(-c2cncc4cnn(C)c24)c(=O)n3CCC#N)c(C#N)cc1F (single isomer, unassigned) [Example 1004, 2-[1-(2-cyanoethyl)-3-(1-methylpyrazolo[4,3-c]pyridin-7-yl)-2,4-dioxo-thieno[3,2-d]pyrimidin-6-yl]-5-fluoro-4-methoxy-benzonitrile]	7.15			pEC50 ([2]; read-out: MPro EC50): 6.95
O=c1[nH]c2cc(-c3ccccc3Cl)sc2c(=O)n1-c1cncc2cnn(CC(F)(F)F)c12 [Example 496]	7.50		6.86	
Cc1cccc(C)c1-c1ccc2c(=O)n(-c3cncc4ccccc34)c(=O)[nH]c2c1 [Example 27]		6.11	6.12	
O=c1[nH]c2cc(-c3ccccc3)cnc2c(=O)n1-c1cncc2ccccc12 [Example 29]		6.32		pEC50 [2, 4]: 5.35
COc1ccc(Cl)c(-c2cc3[nH]c(=O)n(-c4cncc5ccc(C)nc45)c(=O)c3s2)c1 [Example 459]	7.74		7.69	
